Measured values: patent publication US7618983B2, “Bicyclic triazole α4 integrin inhibitors” (Janssen Pharmaceutica, N.V., priority 2004, dated 2009)
Like-named read-outs stand apart in the source and are kept apart here.

What was measured:
α4β1 = α4β1 (Homo sapiens, UniProt P05556+P13612); test: Ramos Cell Adhesion Assay (α4β1 Mediated Adhesion/VCAM-1); assay type: cell-based; set-up: Ramos Cell Adhesion Assay (α4β1 Mediated Adhesion/VCAM-1); endogenous in cells; host or cells: Ramos cells
Experimental: Ramos Cell Adhesion Assay (α4β1 Mediated Adhesion/VCAM-1)
Immulon 96 well plates (Dynex) were coated with 100 μL recombinant hVCAM-1 at 4.0 μg/mL in 0.05 M NaCO3 buffer pH 9.0 overnight at 4° C. (R&D Systems). Plates were washed 3 times in PBS with 1% BSA and blocked for 1 h @ room temperature in this buffer. PBS was removed and compounds to be tested (50 μL) were added at 2× concentration. Ramos cells, (50 μL at 2×10^6/mL) labeled with 5 μM Calcein AM (Molecular Probes) for 1 h at 37° C., were added to each well and allowed to adhere for 1 h at room temperature. Plates were washed 3× in PBS+1% BSA and cells were lysed for 15 minutes in 100 μL of 1 M Tris pH 8.0 with 1% SDS. The plate was read at 485 nm excitation and 530 nm emission.

human α4β7 integrin = molecular target: T1, human α4β7 integrin (Homo sapiens, UniProt P13612+P26010); test: α4β7-K562 Cell Adhesion Assay (α4β7 Mediated Adhesion/MAdCAM-1); assay type: cell-based
T1 construct: expressed in transfected cells; host or cells: K562 cells, stably transfected
T1 sequence (P13612 34-1032): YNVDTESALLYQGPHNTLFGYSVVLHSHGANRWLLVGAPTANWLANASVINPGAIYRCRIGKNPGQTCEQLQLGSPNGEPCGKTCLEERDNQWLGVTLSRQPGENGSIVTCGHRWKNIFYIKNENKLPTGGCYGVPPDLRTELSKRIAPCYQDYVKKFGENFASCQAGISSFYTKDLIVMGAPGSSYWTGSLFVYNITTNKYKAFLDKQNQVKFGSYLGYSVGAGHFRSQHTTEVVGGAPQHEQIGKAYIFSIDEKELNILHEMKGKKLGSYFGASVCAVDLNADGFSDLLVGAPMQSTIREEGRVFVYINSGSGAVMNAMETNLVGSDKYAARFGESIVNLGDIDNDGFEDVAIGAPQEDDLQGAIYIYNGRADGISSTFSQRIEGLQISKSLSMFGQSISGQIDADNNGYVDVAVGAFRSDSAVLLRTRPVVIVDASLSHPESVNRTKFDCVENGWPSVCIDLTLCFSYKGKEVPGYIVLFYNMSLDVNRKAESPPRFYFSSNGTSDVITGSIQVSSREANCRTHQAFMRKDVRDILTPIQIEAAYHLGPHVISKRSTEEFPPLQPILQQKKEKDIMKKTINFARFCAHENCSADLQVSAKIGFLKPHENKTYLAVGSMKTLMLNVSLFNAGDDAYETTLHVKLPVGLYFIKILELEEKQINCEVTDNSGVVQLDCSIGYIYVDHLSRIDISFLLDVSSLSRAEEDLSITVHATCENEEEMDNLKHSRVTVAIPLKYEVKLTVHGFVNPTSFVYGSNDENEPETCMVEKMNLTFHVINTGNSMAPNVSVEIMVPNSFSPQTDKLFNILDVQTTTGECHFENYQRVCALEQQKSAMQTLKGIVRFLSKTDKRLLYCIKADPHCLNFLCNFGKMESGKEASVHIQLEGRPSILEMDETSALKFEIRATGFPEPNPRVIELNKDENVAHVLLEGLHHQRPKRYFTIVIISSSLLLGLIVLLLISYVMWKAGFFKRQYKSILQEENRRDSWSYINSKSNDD
T1 sequence (P26010 20-798): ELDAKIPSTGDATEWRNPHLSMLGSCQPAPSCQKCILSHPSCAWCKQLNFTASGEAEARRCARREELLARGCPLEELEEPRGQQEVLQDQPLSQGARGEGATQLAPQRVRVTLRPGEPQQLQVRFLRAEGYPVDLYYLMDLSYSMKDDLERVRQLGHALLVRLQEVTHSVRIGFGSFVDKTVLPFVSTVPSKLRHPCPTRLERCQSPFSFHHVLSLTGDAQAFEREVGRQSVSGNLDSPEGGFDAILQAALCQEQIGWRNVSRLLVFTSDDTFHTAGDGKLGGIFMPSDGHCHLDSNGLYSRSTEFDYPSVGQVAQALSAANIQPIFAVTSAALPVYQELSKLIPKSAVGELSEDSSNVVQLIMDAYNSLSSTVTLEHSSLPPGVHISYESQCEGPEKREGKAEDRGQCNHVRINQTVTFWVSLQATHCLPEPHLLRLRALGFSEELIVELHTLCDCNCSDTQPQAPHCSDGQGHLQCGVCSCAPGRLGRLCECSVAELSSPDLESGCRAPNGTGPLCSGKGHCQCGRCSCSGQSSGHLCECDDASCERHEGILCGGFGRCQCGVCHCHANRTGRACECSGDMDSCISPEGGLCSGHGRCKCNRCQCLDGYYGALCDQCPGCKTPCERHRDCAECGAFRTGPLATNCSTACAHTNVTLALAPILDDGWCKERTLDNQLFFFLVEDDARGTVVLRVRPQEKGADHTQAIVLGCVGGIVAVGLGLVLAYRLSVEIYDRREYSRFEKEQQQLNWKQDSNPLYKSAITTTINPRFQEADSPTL
Experimental: α4β7-K562 Cell Adhesion Assay (α4β7 Mediated Adhesion/MAdCAM-1)
M2 anti-FLAG antibody coated 96-well plates (Sigma) were coated for 1 hour at 4° C. with 2-8 μl/well recombinant FLAG-hMAdCAM-1 contained in 100 μL of Dulbecco's PBS, pH 7.4, with 1% BSA and 1 mM Mn^2+ (PBS-BSA-Mn). Plates were washed once with PBS-BSA-Mn. Buffer was removed and compounds to be tested (50 μL) were added at 2 times concentration. Stably transfected K562 cells expressing human α4β7 integrin, (50 μL at 2×10^6/mL) that had been labeled with 100 μg/mL carboxymethyl fluorescein diacetate succinimidyl ester (CFDA-SE; Molecular Probes) for 15 min at 37° C. were added to each well and allowed to adhere for 1 h at room temperature. Plates were washed 4 times in PBS-BSA-Mn and then cells were lysed for 2 minutes by addition of 100 μL of PBS without Ca, Mg supplemented with 0.1 M NaOH. The plate was read on a 96-well fluorescent plate reader at 485 nm excitation and 530 nm emission.

[1] = Ramos cells adhering to recombinant hVCAM-1, read-out: α4β1 IC50
[2] = K562 cells expressing human α4β7 adhering to FLAG-hMAdCAM-1, 1 mM Mn2+, read-out: α4β7, Madcam IC50

Chain of α4β1 (P05556 21-798, one chain of several): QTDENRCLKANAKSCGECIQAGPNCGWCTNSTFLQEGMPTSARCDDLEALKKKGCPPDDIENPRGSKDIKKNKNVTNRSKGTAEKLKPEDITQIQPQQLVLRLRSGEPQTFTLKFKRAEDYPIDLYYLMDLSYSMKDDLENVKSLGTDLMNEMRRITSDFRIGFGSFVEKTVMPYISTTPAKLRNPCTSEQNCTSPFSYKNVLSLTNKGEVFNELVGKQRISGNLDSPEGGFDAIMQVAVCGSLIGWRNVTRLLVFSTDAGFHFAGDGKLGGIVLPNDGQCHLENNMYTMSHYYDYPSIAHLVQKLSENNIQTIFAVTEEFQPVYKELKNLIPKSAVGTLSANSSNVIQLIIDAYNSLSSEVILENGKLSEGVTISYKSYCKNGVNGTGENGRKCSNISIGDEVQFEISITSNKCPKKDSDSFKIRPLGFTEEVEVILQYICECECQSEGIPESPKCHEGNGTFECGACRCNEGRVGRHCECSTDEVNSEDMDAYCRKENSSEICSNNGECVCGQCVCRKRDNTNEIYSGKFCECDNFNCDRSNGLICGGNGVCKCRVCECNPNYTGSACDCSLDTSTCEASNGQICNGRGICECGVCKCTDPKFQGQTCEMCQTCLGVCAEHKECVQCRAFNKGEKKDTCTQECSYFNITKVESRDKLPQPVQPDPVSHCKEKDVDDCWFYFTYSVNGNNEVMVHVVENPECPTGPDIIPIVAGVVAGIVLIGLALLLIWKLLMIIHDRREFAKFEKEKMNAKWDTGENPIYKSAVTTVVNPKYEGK

| SMILES | IC50 (α4β1) [nM] | IC50 (human α4β7 integrin) [nM] | IC50 (α4β1; [1]) [nM] | IC50 (human α4β7 integrin; [2]) [nM] |
| --- | --- | --- | --- | --- |
| CN(C)C(=O)Oc1ccc(C[C@H](NC(=O)C2CCCc3nnc(-c4ccccc4)n32)C(=O)O)cc1 (stereo partly drawn) [Cpd 1, 3-(4-Dimethylcarbamoyloxy-phenyl)-2-(S)-[(3-phenyl-5,6,7,8-tetrahydro-[1,2,4]triazolo[4,3-a]pyridine-5-carbonyl)-amino]-propionic acid] | 3300 | 1220 |  |  |
| CN(C)C(=O)Oc1ccc(C[C@H](NC(=O)C2CCCc3nnc(Cc4ccccc4)n32)C(=O)O)cc1 (stereo partly drawn) [Cpd 2, 2-(S)-[(3-Benzyl-5,6,7,8-tetrahydro-[1,2,4]triazolo[4,3-a]pyridine-5-carbonyl)-amino]-3-(4-dimethylcarbamoyloxy-phenyl)-propionic acid] | 5090 | 1660 |  |  |
| CN(C)C(=O)Oc1ccc(C[C@H](NC(=O)[C@@H]2CCc3nnc(Cc4ccccc4)n32)C(=O)O)cc1 [Cpd 3, 2-(S)-[(3-Benzyl-6,7-dihydro-5H -pyrrolo[2,1-c][1,2,4]triazole-5-(S)-carbonyl)-amino]-3-(4-dimethylcarbamoyloxy-phenyl)-propionic acid] | 4150 | > 5000 |  |  |
| O=C(Nc1ccc(C[C@H](NC(=O)[C@@H]2CCc3nnc(Cc4ccccc4)n32)C(=O)O)cc1)c1c(Cl)cccc1Cl [Cpd 4, 2-(S)-[(3-Benzyl-6,7-dihydro-5H-pyrrolo[2,1-c][1,2,4]triazole-5-(S)-carbonyl)-amino]-3-[4-(2,6-dichloro-benzoylamino)-phenyl]-propionic acid] |  |  | 620 | 290 |
| O=C(Nc1ccc(C[C@H](NC(=O)[C@@H]2CCc3nnc(Cc4ccccc4)n32)C(=O)O)cc1)c1cccc2ccccc12 [Cpd 5, 2-(S)-[(3-Benzyl-6,7-dihydro-5H-pyrrolo[2,1-c][1,2,4]triazole-5-(S)-carbonyl)-amino]-3-{4-[(naphthalene-1-carbonyl)-amino]-phenyl}-propionic acid] |  |  | > 5000 | > 5000 |
| O=C(Nc1ccc(C[C@H](NC(=O)[C@@H]2CCc3nnc(Cc4ccccc4)n32)C(=O)O)cc1)c1ccc2ccccc2c1 [Cpd 6, 2-(S)-[(3-Benzyl-6,7-dihydro-5H-pyrrolo[2,1-c][1,2,4]triazole-5-(S)-carbonyl)-amino]-3-{4-[(naphthalene-2-carbonyl)-amino]-phenyl}-propionic acid] |  |  | > 5000 | > 5000 |
| CCOc1ccc2ccccc2c1C(=O)Nc1ccc(C[C@H](NC(=O)[C@@H]2CCc3nnc(Cc4ccccc4)n32)C(=O)O)cc1 [Cpd 7, 2-(S)-[(3-Benzyl-6,7-dihydro-5H-pyrrolo[2,1-c][1,2,4]triazole-5-(S)-carbonyl)-amino]-3-{4-[(2-ethoxy-naphthalene-1-carbonyl)-amino]-phenyl}-propionic acid] |  |  | > 5000 | > 5000 |
| O=C(Nc1ccc(C[C@H](NC(=O)[C@@H]2CCc3nnc(Cc4ccccc4)n32)C(=O)O)cc1)c1cccc2c1-c1ccccc1C2=O [Cpd 8, 2-(S)-[(3-Benzyl-6,7-dihydro-5H-pyrrolo[2,1-c][1,2,4]triazole-5-(S)-carbonyl)-amino]-3-{4-[(9-oxo-9H-fluorene-4-carbonyl)-amino]-phenyl}-propionic acid] |  |  | 1560 | 350 |
| O=C(Nc1ccc(C[C@H](NC(=O)[C@@H]2CCc3nnc(Cc4ccccc4)n32)C(=O)O)cc1)c1c(Cl)cncc1Cl [Cpd 9, 2-(S)-[(3-Benzyl-6,7-dihydro-5H-pyrrolo[2,1-c][1,2,4]triazole-5-(S)-carbonyl)-amino]-3-{4-[(3,5-dichloro-pyridine-4-carbonyl)-amino]-phenyl}-propionic acid] |  |  | 80 | 20 |
| CCCc1nnc2n1[C@H](C(=O)N[C@@H](Cc1ccc(NC(=O)c3c(Cl)cccc3Cl)cc1)C(=O)O)CC2 [Cpd 10, 3-[4-(2,6-Dichloro-benzoylamino)-phenyl]-2-(S)-[(3-propyl-6,7-dihydro-5H-pyrrolo[2,1-c][1,2,4]triazole-5-(S)-carbonyl)-amino]-propionic acid] |  |  | 1040 | 80 |
| O=C(NCc1nnc2n1[C@H](C(=O)N[C@@H](Cc1ccc(NC(=O)c3c(Cl)cccc3Cl)cc1)C(=O)O)CC2)OCc1ccccc1 [Cpd 11, 2-(S)-{[3-(Benzyloxycarbonylamino-methyl)-6,7-dihydro-5H-pyrrolo[2,1-c][1,2,4]triazole-5-(S)-carbonyl]-amino}-3-[4-(2,6-dichloro-benzoylamino)-phenyl]-propionic acid] |  |  | > 5000 | 550 |
| O=C(Nc1ccc(C[C@H](NC(=O)[C@@H]2CCc3nnc(Cc4ccsc4)n32)C(=O)O)cc1)c1c(Cl)cccc1Cl [Cpd 12, 3-[4-(2,6-Dichloro-benzoylamino)-phenyl]-2-(S)-[(3-thiophen-3-ylmethyl-6,7-dihydro-5H-pyrrolo[2,1-c][1,2,4]triazole-5-(S)-carbonyl)-amino]-propionic acid] |  |  | 380 | 120 |
| COc1cccc(OC)c1-c1ccc(C[C@H](NC(=O)[C@@H]2CCc3nnc(Cc4ccccc4)n32)C(=O)O)cc1 [Cpd 13, 2-(S)-[(3-Benzyl-6,7-dihydro-5H-pyrrolo[2,1-c][1,2,4]triazole-5-(S)-carbonyl)-amino]-3-(2′,6′-dimethoxy-biphenyl-4-yl)-propionic acid] |  |  | 1190 | 320 |
| COc1cccc(OC)c1-c1ccc(C[C@H](NC(=O)[C@@H]2CCc3nnc(Cc4ccsc4)n32)C(=O)O)cc1 [Cpd 15, 3-(2′,6′-Dimethoxy-biphenyl-4-yl)-2-(S)-[(3-thiophen-3-ylmethyl-6,7-dihydro-5H-pyrrolo[2,1-c][1,2,4]triazole-5-(S)-carbonyl)-amino]-propionic acid] |  |  | 710 | 90 |
